Test results as given in patent US3948886A, “6-Substituted purine 3',5'-cyclic nucleotides” (ICN Pharmaceuticals, Inc., priority 1973, dated 1976).

How the values were obtained:
[1] = system: cyclic AMP-dependent protein kinase; test: Activation of bovine brain cyclic AMP-dependent protein kinase; assay type: biochemical; settings: pH 6, relative to cyclic AMP
Description: Cyclic AMP-dependent protein kinase was purified to the stage of DEAE cellulose chromatography from bovine brain using the procedure of Miyamoto et al., J. Biol. Chem. 244, 6395 (1969). Protein kinase activity was assayed by measuring the incorporation of ^32 P-phosphate into histone from γ-^32 P labeled ATP. The incubation mixture contained (amounts in μmoles): sodium glycerol phosphate buffer, pH 6, 10; γ-^32 P-ATP, ~2 × 10^6 cpm, 0.001; magnesium acetate, 2; sodium fluoride, 2; EDTA, 0.06; histone, 40 - 400 μg; cAMP, cGMP or analog as indicated; purified protein kinase, 5 - 25 μg in a final volume of 0.2 ml. Activation constants (Ka) were determined according to the procedure of Muneyama et al., supra. The Ka values relative to cyclic AMP (Ka') are reported in Table IV and compared to Ka' for compound 6.

[2] = system: cyclic AMP phosphodiesterase; test: Resistance to phosphodiesterase (PDE) degradation; assay type: biochemical; settings: rabbit kidney PDE, pH 7.5, 37°C
L-929 cells = test: Interferon potentiation in vitro with L-929 cells; assay type: cell-based
adenyl cyclase = test: Adenyl cyclase inhibition (guinea pig lung particulate fraction); assay type: biochemical; settings: guinea pig lung particulate enzyme fraction, 1.2 mM ATP, pH 7.8, 15 min at 37°; read-out: I50 (concentration required for 50% enzyme inhibition)
Description: Lunt alveolar tissue was obtained from normal guinea pigs. The tissue was minced and a Duall tissue grinder was used to prepare a 20% homogenate in chilled buffer containing 1 mM MgCl 2 and 2 mM glycylglycine, pH 7.5 (F. Murad et al., J. Biol. Chem. 237: 1233, 1962). The homogenate was strained through four layers of gauze and centrifuged at 1000xg for 15 min at 4°. The pellet was resuspended in the original volume of buffer and recentrifuged. The pellet was again resuspended in buffer and 0.5 - 1.0 ml aliquots were sealed in ampoules and stored under liquid nitrogen for future assay of adenylate cyclase activity. […] Protein was determined by the method of Lowry et al., J. Biol. Chem. 193: 265, 1951, with crystalline bovine serum albumin as standard.
Adenylate cyclase activity was assayed in duplicate by a modification of previously published methods (G. Krishna et al., J. Pharmacol. Exp. Therap. 163: 379, 1968; G. S. Levey and S. E. Epstein, Circ. Res. 24: 151, 1969). The total assay volume was 0.59 ml and contained 1.8 mM MgCl2, 0.8 mM glycylglycine, 32 mM Tris (pH 7.8), 1.2 mM ATP, 3-5×10^6 cpm [α-^32 P] ATP, and particulate enzyme fraction (100-150 μg. lung protein). Concentrated solutions of compounds to be tested were prepared fresh daily by dissolution in water, ethanol, or dimethyl sulfoxide; 5-10 μl of the solution was added to the incubation mixture to give the desired final concentration. Control assays (without compound) contained solvent alone.
The incubation mixture was reacted for 15 min at 37° in a shaker, and then boiled for 3 min to inactivate the cyclase. One hundred μl of a solution containing 4 μmoles ATP, 1.25 μmoles cyclic AMP, and 0.15μCi [^3 H] cyclic AMP was added to the reaction mixture. […] After centrifugation, 1 ml of supernatant containing [^32 P] cyclic AMP and [^3 H] cyclic AMP was mixed with 15 ml of scintillator (100 g naphthalene, 14 g PPO, and 0.1 g dimethyl POPOP per 2 l dioxane) and counted. […]

Herpes virus Type 2 = test: Antiviral activity, virus rating (VR) method, Herpes Type 2; assay type: cell-based; settings: virus rating (VR) method of Sidwell et al.
Description: (§1) Tested according to the virus rating (VR) method of Sidwell et al., Proc. Soc.

Herpes virus Type 1 = test: Antiviral activity, virus rating (VR) method, Herpes Type 1; assay type: cell-based; settings: virus rating (VR) method of Sidwell et al.
Description: as §1

Rhino viruses = test: Antiviral activity, virus rating (VR) method, Rhino viruses; assay type: cell-based; settings: virus rating (VR) method of Sidwell et al.
Description: as §1

[3] = system: 6-methylthio-purine riboside-resistant Ehrlich carcinomas; test: Growth inhibition of surgically implanted Ehrlich carcinomas in mice; assay type: in vivo; settings: intraperitoneally, 83 μmoles/Kg

Row | SMILES | Ka' (= Ka, cyclic AMP/Ka analog) [1] | rate of analog hydrolysis relative to cyclic AMP (α) [2] | interferon potentiation (L-929 cells) | IC50 (adenyl cyclase) | activity against Herpes virus Type 2 (Herpes virus Type 2) | activity against Herpes virus Type 1 (Herpes virus Type 1) | activity against Rhino viruses (Rhino viruses) | inhibition of growth of Ehrlich carcinomas [3]
1 | O=P1(O)OC[C@H]2O[C@@H](n3cnc4c(=S)[nH]cnc43)[C@H](O)[C@@H]2O1 [Compound 6, 9-β-D-Ribofuranosylpurin-6-thione 3', 5'-cyclic phosphate, reference compound] | 0.56 | 1.06 | did not | – | – | – | – | –
2 | CSc1ncnc2c1ncn2[C@@H]1O[C@@H]2COP(=O)(O)O[C@H]2[C@H]1O [Compound 7a, 6-Methylthio-9-β-D-ribofuranosylpurine 3', 5'-cyclic phosphate] | 1.45 | 0.41 | marked interferon potentiation | 340 µM | exhibited activity | exhibited activity | – | –
3 | CCSc1ncnc2c1ncn2[C@@H]1O[C@@H]2COP(=O)(O)O[C@H]2[C@H]1O [Compound 7b, 6-Ethylthio-9-β-D-ribofuranosylpurine 3', 5'-cyclic phosphate] | 2.0 | 0.57 | marked interferon potentiation | 1000 µM | – | exhibited activity | exhibited activity | –
4 | O=P1(O)OC[C@H]2O[C@@H](n3cnc4c(SCc5ccccc5)ncnc43)[C@H](O)[C@@H]2O1 [Compound 7c, 6-Benzylthio-9-β-D-ribofuranosylpurine 3', 5'-cyclic phosphate] | 1.25 | 0.54 | – | 7000 µM | exhibited activity | – | – | inhibited growth
